Laboratory results from PubChem BioAssay AID1963853 (Molecular Pharmacology Branch, DTP, NCI, 2024).

Test system: 266295-075-R-J1-PDC spheroid viability
Experiment: Anticancer human tumor 266295-075-R-J1-PDC patient-derived head and neck squamous carcinoma cell line growth inhibition [POLQ]
Details: spheroids with HUVEC and MSC; for IC50: curve of first compound; for viability, T/C: stronger effect = lower value
Outline: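 Patient-derived tumour cells were co-cultured with HUVEC and mesenchymal stem cells as multicellular spheroids at 37 °C. They were treated with POLQ inhibitors (novobiocin, ART-558, RP6685) alone or combined with other agents. Top concentrations were at or near clinical Cmax (otherwise 10 microM; SN-38 at 1 microM), decreasing in half-log steps.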

[1] = second compound 0.0316 µM, first compound 0.0316 µM
[2] = second compound 0.0316 µM, first compound 0.1 µM
[3] = second compound 0.0316 µM, first compound 0.316 µM
[4] = second compound 0.0316 µM, first compound 1 µM
[5] = second compound 0.0316 µM, first compound 3.16 µM
[6] = second compound 0.0316 µM, first compound 10 µM
[7] = second compound 0.1 µM, first compound 0.0316 µM
[8] = second compound 0.1 µM, first compound 0.1 µM
[9] = second compound 0.1 µM, first compound 0.316 µM
[10] = second compound 0.1 µM, first compound 1 µM
[11] = second compound 0.1 µM, first compound 3.16 µM
[12] = second compound 0.1 µM, first compound 10 µM
[13] = second compound 0.316 µM, first compound 0.0316 µM
[14] = second compound 0.316 µM, first compound 0.1 µM
[15] = second compound 0.316 µM, first compound 0.316 µM
[16] = second compound 0.316 µM, first compound 1 µM
[17] = second compound 0.316 µM, first compound 3.16 µM
[18] = second compound 0.316 µM, first compound 10 µM
[19] = second compound 1 µM, first compound 0.0316 µM
[20] = second compound 1 µM, first compound 0.1 µM
[21] = second compound 1 µM, first compound 0.316 µM
[22] = second compound 1 µM, first compound 1 µM
[23] = second compound 1 µM, first compound 3.16 µM
[24] = second compound 1 µM, first compound 10 µM
[25] = second compound 3.16 µM, first compound 0.0316 µM
[26] = second compound 3.16 µM, first compound 0.1 µM
[27] = second compound 3.16 µM, first compound 0.316 µM
[28] = second compound 3.16 µM, first compound 1 µM
[29] = second compound 3.16 µM, first compound 3.16 µM
[30] = second compound 3.16 µM, first compound 10 µM
[31] = second compound 10 µM, first compound 0.0316 µM
[32] = second compound 10 µM, first compound 0.1 µM
[33] = second compound 10 µM, first compound 0.316 µM
[34] = second compound 10 µM, first compound 1 µM
[35] = second compound 10 µM, first compound 3.16 µM
[36] = second compound 10 µM, first compound 10 µM
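Also: spheroids exposed to compounds for seven days before readout.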

For `COc1cc2cc(C(=O)CCC(=O)O)sc2cc1OC` + Nc1ccc(C#CCN(C(=O)Cc2ncc(C(F)(F)F)cc2C(F)(F)F)c2ccc(F)cc2)nn1, the IC50 (second compound 0.0316 µM) was greater than 10 µM, the IC50 (second compound 0.1 µM) was greater than 10 µM and the IC50 (second compound 0.316 µM) was greater than 10 µM. It also gave an IC50 (second compound 1 µM) greater than 10 µM, an IC50 (second compound 3.16 µM) greater than 10 µM and an IC50 (second compound 10 µM) greater than 10 µM. It also gave a viability, T/C [1] of 119%, a viability, T/C [2] of 81% and a viability, T/C [3] of 82.3%. For the same compound, the viability, T/C [4] was 89.5%, the viability, T/C [5] was 94.8% and the viability, T/C [6] was 99.7%. The viability, T/C [7] was 101%, the viability, T/C [8] was 87.7% and the viability, T/C [9] was 84.3%. It also gave a viability, T/C [10] of 127%, a viability, T/C [11] of 82.2% and a viability, T/C [12] of 80.6%. The viability, T/C [13] was 109%, the viability, T/C [14] was 112% and the viability, T/C [15] was 104%. For the same compound, the viability, T/C [16] was 79.8%, the viability, T/C [17] was 104% and the viability, T/C [18] was 79.1%. For the same compound, the viability, T/C [19] was 86.4%, the viability, T/C [20] was 106% and the viability, T/C [21] was 102%. It also gave a viability, T/C [22] of 83%, a viability, T/C [23] of 117% and a viability, T/C [24] of 90.9%. It also gave a viability, T/C [25] of 105%, a viability, T/C [26] of 106% and a viability, T/C [27] of 98.9%. The viability, T/C [28] was 81.8%, the viability, T/C [29] was 85.7% and the viability, T/C [30] was 104%. The viability, T/C [31] was 82.5%, the viability, T/C [32] was 83.7% and the viability, T/C [33] was 86.4%. The viability, T/C [34] was 102%, the viability, T/C [35] was 87.5% and the viability, T/C [36] was 88%.
`COc1ccc([C@@H](O)c2cc(-c3ncnc4cc(N5CCOCC5)ccc34)c(F)cc2Cl)nn1` + Nc1ccc(C#CCN(C(=O)Cc2ncc(C(F)(F)F)cc2C(F)(F)F)c2ccc(F)cc2)nn1 gave an IC50 (second compound 0.0316 µM) of 5.25 µM, an IC50 (second compound 0.1 µM) of 2.47 µM and an IC50 (second compound 0.316 µM) of 4.85 µM. It also gave an IC50 (second compound 1 µM) of 2.71 µM, an IC50 (second compound 3.16 µM) of 3.24 µM and an IC50 (second compound 10 µM) of 2.49 µM. The viability, T/C [1] was 87.8%, the viability, T/C [2] was 91.7% and the viability, T/C [3] was 72.4%. For the same compound, the viability, T/C [4] was 89%, the viability, T/C [5] was 59.4% and the viability, T/C [6] was 38%. For the same compound, the viability, T/C [7] was 78.3%, the viability, T/C [8] was 89.7% and the viability, T/C [9] was 71.6%. The viability, T/C [10] was 73.9%, the viability, T/C [11] was 43.2% and the viability, T/C [12] was 40%. It also gave a viability, T/C [13] of 93%, a viability, T/C [14] of 94.9% and a viability, T/C [15] of 71.4%. The viability, T/C [16] was 75.4%, the viability, T/C [17] was 57.4% and the viability, T/C [18] was 37.7%. It also gave a viability, T/C [19] of 113%, a viability, T/C [20] of 120% and a viability, T/C [21] of 81.1%. The viability, T/C [22] was 71%, the viability, T/C [23] was 49.3% and the viability, T/C [24] was 29.6%. For the same compound, the viability, T/C [25] was 98.6%, the viability, T/C [26] was 109% and the viability, T/C [27] was 82.8%. For the same compound, the viability, T/C [28] was 65.9%, the viability, T/C [29] was 55% and the viability, T/C [30] was 38.2%. For the same compound, the viability, T/C [31] was 104%, the viability, T/C [32] was 94.2% and the viability, T/C [33] was 87.9%. For the same compound, the viability, T/C [34] was 61.2%, the viability, T/C [35] was 46.8% and the viability, T/C [36] was 42.6%.
With `COc1cccc2c1C(=O)c1c(O)c3c(c(O)c1C2=O)CC(O)(C(=O)CO)CC3OC1CC(N)C(O)C(C)O1` (stereo unspecified) + Nc1ccc(C#CCN(C(=O)Cc2ncc(C(F)(F)F)cc2C(F)(F)F)c2ccc(F)cc2)nn1 the IC50 (second compound 0.0316 µM) was 4.42 µM, the IC50 (second compound 0.1 µM) was 3.75 µM and the IC50 (second compound 0.316 µM) was 4.37 µM. For the same compound, the IC50 (second compound 1 µM) was 4.41 µM, the IC50 (second compound 3.16 µM) was 3.47 µM and the IC50 (second compound 10 µM) was 2.44 µM. For the same compound, the viability, T/C [1] was 93%, the viability, T/C [2] was 106% and the viability, T/C [3] was 74.4%. The viability, T/C [4] was 83.8%, the viability, T/C [5] was 72.4% and the viability, T/C [6] was 2.33%. It also gave a viability, T/C [7] of 126%, a viability, T/C [8] of 103% and a viability, T/C [9] of 89.2%. The viability, T/C [10] was 80.5%, the viability, T/C [11] was 71.8% and the viability, T/C [12] was 2.03%. For the same compound, the viability, T/C [13] was 119%, the viability, T/C [14] was 106% and the viability, T/C [15] was 74.2%. For the same compound, the viability, T/C [16] was 96.6%, the viability, T/C [17] was 72.9% and the viability, T/C [18] was 1.67%. It also gave a viability, T/C [19] of 92.7%, a viability, T/C [20] of 84.3% and a viability, T/C [21] of 89.3%. The viability, T/C [22] was 77.9%, the viability, T/C [23] was 71.8% and the viability, T/C [24] was 2.11%. The viability, T/C [25] was 103%, the viability, T/C [26] was 102% and the viability, T/C [27] was 73.9%. For the same compound, the viability, T/C [28] was 74.2%, the viability, T/C [29] was 64% and the viability, T/C [30] was 1.77%. For the same compound, the viability, T/C [31] was 134%, the viability, T/C [32] was 99.5% and the viability, T/C [33] was 90.1%. It also gave a viability, T/C [34] of 73.8%, a viability, T/C [35] of 53.3% and a viability, T/C [36] of 2.11%.
